These results are taken from publication PMC4806436, “Disrupted ADP-ribose metabolism with nuclear Poly (ADP-ribose) accumulation leads to different cell death pathways in presence of hydrogen peroxide in procyclic Trypanosoma brucei” (Parasites & Vectors, 2016).

Test [1] deals with Trypanosoma brucei procyclic parasites. Kind of test: Effect of inhibitors on procyclic parasite growth (OD600, 48 h). The test is classed as cell-based. As to the method: Trypanosoma brucei procyclic parasites were grown in SDM-79 medium for 48 h until reaching a density of 5×10^6 cells/mL. Aliquots of 200 μl were distributed in 96-well plates and inhibitors were present at different final concentrations, as indicated in the figures. Nifurtimox (NFX) was used as a positive control in concentrations ranging from 0.25–25 μM. Culture density was checked by OD600 after 48 h.
In all experiments, triplicates were done for each condition tested and data significance was assessed by one-way Anova (GraphPad Prism5.03 version Software).

Test [2] relates to PAR formation in bloodstream T. brucei. Briefly: In culture inhibition of PAR formation after H2O2, Dot blot, bloodstream form. The test is classed as cell-based, Trypanosoma brucei. The settings on record: inhibitor at 10-fold in vitro IC50 (29 nM Olaparib; 1.5 μM Rucaparib), 10 min preincubation, 250 μM H2O2. As to the method:
(§1) T. brucei procyclic strain 29–13 [29] was cultured at 28 °C in SDM-79 (Bioscience) containing 10 % (v/v) FCS and 0002 % hemin. T. brucei bloodstream strain 427 90-13 [29] was cultured at 37 °C in HMI-11 (Iscore’s Modified Dulbecco’s Medium (Invitrogen), 100 mg/L sodium pyruvate, 136.1 mg/L hypoxantine, 38.7 mg/L thymidine, 28.22 mg/L bathocuproinedisulfonic acid, 181.8 mg/L L-cysteine, 3.024 mg/L sodium carbonate, 196 μM β-mercaptoethanol) containing FCS (10 % v/v). Parasite viability was analyzed by microscopy.
(§2) For in culture inhibition assays, parasites of the procyclic form of Trypanosoma brucei were grown for 48 h up to a density of 5×10^6 parasites/mL. Parasites of the bloodstream form were grown for 24 h up to a density of 5×10^5 parasites/mL. In both cases, cells were harvested and preincubated for 30 min or 10 min in PBS-Glucose 2 % with inhibitors added, after which the parasites were treated with 500 μM or 250 μM hydrogen peroxide for procyclic and bloodstream forms, respectively, for 10 min.

Another test relates to TcPARP. Further details: method as in PMID 23049934. The settings on record: read-out: potency towards TcPARP; cited from earlier work.
In the next test the target is TbPARP (Trypanosoma brucei brucei, UniProt Q0PW89). Briefly: biochemical. The conditions noted are these: 5 nM TbPARP, 500 nM NAD+, 11 min at 25 °C, mean of three dose-response curves. As to the method: The optimal conditions for the activity of purified recombinant TbPARP, were determined by using a fluorometric activity assay. Incubation at 25 °C with shaking at 300 rpm was placed in propylene plates of 96 wells (Greiner BioOne). To terminate the reaction 2 M KOH (20 μL) and 20 % acetophenone in ethanol (20 μL) were added to each well. After incubating for 10 min at 4 °C, 90 μl of 88 % formic acid was added and incubated in an oven at 110 °C for 5 min. This reaction converts remaining NAD^+ to a fluorescent derivative. After incubation, the plate was allowed to cool down for 15 min and fluorescence was measured using excitation wavelengths of 372 nm and 444 nm for excitation and emission, respectively (Varioskan Flash 4.00.53, Thermo Scientific). Consumption of NAD^+ was detected by the decrease in fluorescence. Experiments were done in triplicates. The activity in control wells were kept under 25 % by optimizing the protein concentration and the incubation time, in order to get a robust signal without slowing down the enzyme activity.
A small set of cations was also tested in order to verify whether the enzymatic activity would depend on them. […] The final assay buffer was 100 mM Na2HPO4/NaH2PO4 pH 7, 500 μM TCEP, 1 μg/μL BSA, and 0.025 mg/mL activated DNA (Sigma Aldrich) and 500 nM NAD^+ (Sigma Aldrich).
Thirty - one compounds were tested. Dilutions from DMSO stocks were made (100 μM, 10 μM and 1 μM) and aliquots of those were used in the enzymatic reaction with 10-fold dilution. Inhibitor solutions were added in triplicates to the plate, followed by the addition of the NAD^+. Reactions were initiated by addition of TbPARP diluted in the same buffer (10 nM). The plate was incubated at 25 °C with shaking (300 rpm, Biosan PST-100 HL) for 45 min. […] To detect any potential fluorescence inherent in the compounds, control reactions were carried out separately with compound alone at 10 μM final concentration. The possible fluorescence quenching properties were controlled using wells within the experimental plate containing the compound with 500 nM NAD^+ in the assay buffer.
The IC50 value for 3-AB (Alexis Biochemicals) was also determined to be used as a reference. Briefly, reaction mix together with the inhibitors at half log dilutions were added to a 96-well plate (10 data points). Reactions were incubated for 11 min at 25 °C after initiating the reaction with the addition of 5 nM TbPARP at a final volume of 50 μL. Measurement of the remaining NAD^+ is described in section Screening of TbPARP inhibitors. All reactions were performed in triplicates and three independent dose response curves were fitted for each inhibitor. Control wells with only NAD^+ or NAD^+ and enzyme were used in the curve fitting, as detailed in our previous work.

The test system of test [3] is PAR formation in procyclic T. brucei. Kind of test: In culture inhibition of PAR formation after H2O2, Dot blot, procyclic form. The test is classed as cell-based, Trypanosoma brucei. The settings on record: inhibitor at 10-fold in vitro IC50 (0.23 μM 4-ANI; 65 nM EB-47; 29 nM Olaparib; 1.5 μM Rucaparib), 30 min preincubation, 500 μM H2O2 10 min. As to the method:
as §1, §2

Test [4] concerns Trypanosoma brucei bloodstream parasites. Kind of test: Effect of inhibitors on bloodstream parasite growth (Neubauer count, 24 h). The test is classed as cell-based. The settings on record: Olaparib 29 nM, Rucaparib 1.5 μM, 3-AB 580 μM, Nifurtimox 2.5 μM. As to the method:
Trypanosoma brucei bloodstream parasites were grown in HMI-11 medium for 24 h until reaching a density of 5×10^5 cells/mL. Aliquots of 100 μL were distributed in 96-well plates and inhibitors were added at different concentrations as indicated in the figures. After an incubation period of 24 h, the parasite number was counted with a Neubauer chamber. In all experiments, triplicates were done for each condition tested and data significance was assessed by one-way Anova (GraphPad Prism5.03 version Software).

Entries after “also recorded” stand apart in the source; their conditions may differ. Read-outs that look alike come from different tables or passages of the source.

Chain of TbPARP (Q0PW89 entry or part of it): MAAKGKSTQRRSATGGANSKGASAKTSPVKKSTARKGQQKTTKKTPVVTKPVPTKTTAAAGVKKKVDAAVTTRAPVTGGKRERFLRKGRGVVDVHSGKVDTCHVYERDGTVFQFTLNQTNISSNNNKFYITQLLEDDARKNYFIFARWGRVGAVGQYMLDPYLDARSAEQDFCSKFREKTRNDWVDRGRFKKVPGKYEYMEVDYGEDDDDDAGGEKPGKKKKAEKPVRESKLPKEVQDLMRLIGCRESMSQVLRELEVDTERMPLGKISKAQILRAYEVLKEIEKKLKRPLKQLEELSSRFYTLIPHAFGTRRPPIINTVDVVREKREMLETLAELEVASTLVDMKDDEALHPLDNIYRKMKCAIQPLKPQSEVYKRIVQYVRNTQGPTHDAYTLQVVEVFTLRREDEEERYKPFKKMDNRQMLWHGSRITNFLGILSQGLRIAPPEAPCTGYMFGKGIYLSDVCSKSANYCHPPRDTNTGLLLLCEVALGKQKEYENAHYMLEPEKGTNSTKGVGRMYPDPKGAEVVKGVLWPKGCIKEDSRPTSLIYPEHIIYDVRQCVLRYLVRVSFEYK

Consider `CNCc1ccc(-c2[nH]c3cc(F)cc4c3c2CCNC4=O)cc1` [Rucaparib, 6-fluoro-2-{4-[(methylamino)methyl]phenyl}-3,10-diazatricyclo[6.4.1.0^{4,13}]trideca-1,4(13),5,7-tetraen-9-one], for which the “impact on growth rate of procyclic parasites” value in test [1] (15 μM (highest concentration)) was “visible impact on the growth rate”. Moreover, the “decrease in procyclic parasite growth” value in test [1] (15 μM, 48 h) came out at 20%. Also, in test [2], the “inhibition of PAR formation in culture, bloodstream form” value was “able to inhibit PAR formations in culture; also recorded: able to reduce PAR formation”. Moreover, the IC50 is 0.025 µM with TcPARP, 0.15 µM at TbPARP (read-out: TbPARP IC50) and 0.148 µM on TbPARP (read-out: TbPARP pIC50 ± SEM (converted)). Besides, the “inhibition of PAR formation in culture, procyclic form” value in test [3] was “inhibited PAR formation in culture; also recorded: able to reduce PAR formation”. In addition, the “effect on bloodstream parasite growth” value in test [4] is recorded as “not able to significantly affect T. brucei growth or survival”.
